Test results from ChEMBL document CHEMBL5303573, “Mapping human microbiome drug metabolism by gut bacteria and their genes” (Nature, 2019).

Legend:
[1] = The drug is tested on Bifidobacterium breve strain: DSM20213 for biotransformation. The drug concentrations were measured before and after a 12-h incubation by liquid-chromatography-coupled mass spectrometry (LC–MS); conditions: 2 µM
[2] = The drug is tested on Collinsella aerofaciens strain: ATCC25986 for biotransformation. The drug concentrations were measured before and after a 12-h incubation by liquid-chromatography-coupled mass spectrometry (LC–MS); conditions: 2 µM
[3] = The drug is tested on Alistipes indistinctus strain: DSM22520 for biotransformation. The drug concentrations were measured before and after a 12-h incubation by liquid-chromatography-coupled mass spectrometry (LC–MS); conditions: 2 µM
[4] = The drug is tested on Bacteroides fragilis strain: HMW610 for biotransformation. The drug concentrations were measured before and after a 12-h incubation by liquid-chromatography-coupled mass spectrometry (LC–MS); conditions: 2 µM
[5] = The drug is tested on Clostridium scindens strain: ATCC35704 for biotransformation. The drug concentrations were measured before and after a 12-h incubation by liquid-chromatography-coupled mass spectrometry (LC–MS); conditions: 2 µM
[6] = The drug is tested on Clostridium sporogenes strain: ATCC15579 for biotransformation. The drug concentrations were measured before and after a 12-h incubation by liquid-chromatography-coupled mass spectrometry (LC–MS); conditions: 2 µM
[7] = The drug is tested on Enterococcus faecalis strain: V583 for biotransformation. The drug concentrations were measured before and after a 12-h incubation by liquid-chromatography-coupled mass spectrometry (LC–MS); conditions: 2 µM
[8] = The drug is tested on Edwardsiella tarda strain: ATCC23685 for biotransformation. The drug concentrations were measured before and after a 12-h incubation by liquid-chromatography-coupled mass spectrometry (LC–MS); conditions: 2 µM
[9] = The drug is tested on Enterobacter cancerogenus strain: ATCC35316 for biotransformation. The drug concentrations were measured before and after a 12-h incubation by liquid-chromatography-coupled mass spectrometry (LC–MS); conditions: 2 µM
[10] = bifidobacterium adolescentis, 12 h, 2 µM
Description: The drug is tested on Bifidobacterium adolescentis strain: ATCC 15703 for biotransformation. The drug concentrations were measured before and after a 12-h incubation by liquid-chromatography-coupled mass spectrometry (LC–MS)

[11] = bacteroides fragilis, 12 h, 2 µM
Description: The drug is tested on Bacteroides fragilis strain: NCTC 9343 for biotransformation. The drug concentrations were measured before and after a 12-h incubation by liquid-chromatography-coupled mass spectrometry (LC–MS)

[12] = bacteroides fragilis, 12 h, 2 µM; remark: listed apart in the source
Description: The drug is tested on Bacteroides fragilis strain: 3397 (T10) for biotransformation. The drug concentrations were measured before and after a 12-h incubation by liquid-chromatography-coupled mass spectrometry (LC–MS)

[13] = bacteroides thetaiotaomicron, 12 h, 2 µM
Description: The drug is tested on Bacteroides thetaiotaomicron strain: VPI-5482 for biotransformation. The drug concentrations were measured before and after a 12-h incubation by liquid-chromatography-coupled mass spectrometry (LC–MS)

[14] = bacteroides thetaiotaomicron, 12 h, 2 µM; remark: listed apart in the source
Description: The drug is tested on Bacteroides thetaiotaomicron strain: 7330 for biotransformation. The drug concentrations were measured before and after a 12-h incubation by liquid-chromatography-coupled mass spectrometry (LC–MS)

[15] = segatella copri, 12 h, 2 µM
Description: The drug is tested on Prevotella copri strain: DSM18205 for biotransformation. The drug concentrations were measured before and after a 12-h incubation by liquid-chromatography-coupled mass spectrometry (LC–MS)

[16] = anaerostipes sp., 12 h, 2 µM
Description: The drug is tested on Anaerostipes sp. strain: fecal isolate for biotransformation. The drug concentrations were measured before and after a 12-h incubation by liquid-chromatography-coupled mass spectrometry (LC–MS)

[17] = limosilactobacillus reuteri cf48-3a, 12 h, 2 µM
Description: The drug is tested on Lactobacillus reuteri CF48-3A strain: BEI HM-102 for biotransformation. The drug concentrations were measured before and after a 12-h incubation by liquid-chromatography-coupled mass spectrometry (LC–MS)

[18] = roseburia intestinalis, 12 h, 2 µM
Description: The drug is tested on Roseburia intestinalis strain: L1-82 for biotransformation. The drug concentrations were measured before and after a 12-h incubation by liquid-chromatography-coupled mass spectrometry (LC–MS)

[19] = The drug is tested on Anaerotruncus colihominis strain: DSM17241 for biotransformation. The drug concentrations were measured before and after a 12-h incubation by liquid-chromatography-coupled mass spectrometry (LC–MS); conditions: 2 µM
[20] = The drug is tested on Bacteroides cellulosilyticus strain: DSM14838 for biotransformation. The drug concentrations were measured before and after a 12-h incubation by liquid-chromatography-coupled mass spectrometry (LC–MS); conditions: 2 µM

Row | SMILES | Bacterial Biotransformation [1] | Bacterial Biotransformation [2] | Bacterial Biotransformation [3] | Bacterial Biotransformation [4] | Bacterial Biotransformation [5] | Bacterial Biotransformation [6] | Bacterial Biotransformation [7] | Bacterial Biotransformation [8] | Bacterial Biotransformation [9] | Bacterial Biotransformation [10] | Bacterial Biotransformation [11] | Bacterial Biotransformation [12] | Bacterial Biotransformation [13] | Bacterial Biotransformation [14] | Bacterial Biotransformation [15] | Bacterial Biotransformation [16] | Bacterial Biotransformation [17] | Bacterial Biotransformation [18] | Bacterial Biotransformation [19] | Bacterial Biotransformation [20]
1 | O=C(CCCN1CCC(O)(c2ccc(Cl)cc2)CC1)c1ccc(F)cc1 [HALOPERIDOL] | Compound NOT metabolized | Compound NOT metabolized | Compound NOT metabolized | Compound NOT metabolized | Compound NOT metabolized | Compound NOT metabolized | Compound NOT metabolized | Compound NOT metabolized | Compound NOT metabolized | Compound NOT metabolized | Compound NOT metabolized | Compound NOT metabolized | Compound NOT metabolized | Compound NOT metabolized | Compound NOT metabolized | Compound NOT metabolized | Compound NOT metabolized | Compound NOT metabolized |  | 
2 | CC1OC(OC2C(O)CC(OC3C(O)CC(OC4CCC5(C)C(CCC6C5CCC5(C)C(C7=CC(=O)OC7)CCC65O)C4)OC3C)OC2C)CC(O)C1O (centres undefined) | Compound NOT metabolized | Compound NOT metabolized | Compound NOT metabolized | Compound metabolized | Compound metabolized | Compound metabolized | Compound NOT metabolized | Compound NOT metabolized | Compound NOT metabolized | Compound NOT metabolized | Compound NOT metabolized | Compound metabolized | Compound metabolized | Compound metabolized | Compound metabolized | Compound NOT metabolized |  | Compound NOT metabolized |  | 
3 | COC(=O)C1=C(C)NC(C)=C(C(=O)OC(C)C)C1c1cccc2nonc12 (centres undefined) [ISRADIPINE] | Compound NOT metabolized | Compound NOT metabolized | Compound NOT metabolized | Compound NOT metabolized | Compound NOT metabolized | Compound NOT metabolized | Compound NOT metabolized | Compound NOT metabolized | Compound NOT metabolized | Compound NOT metabolized | Compound NOT metabolized | Compound NOT metabolized | Compound NOT metabolized | Compound NOT metabolized | Compound NOT metabolized | Compound NOT metabolized | Compound NOT metabolized | Compound NOT metabolized | Compound NOT metabolized | 
4 | COc1ccc2cc([C@H](C)C(=O)O)ccc2c1 [NAPROXEN] | Compound NOT metabolized | Compound NOT metabolized |  | Compound metabolized | Compound NOT metabolized |  | Compound NOT metabolized | Compound NOT metabolized |  |  | Compound NOT metabolized | Compound NOT metabolized | Compound NOT metabolized | Compound NOT metabolized |  | Compound NOT metabolized | Compound NOT metabolized | Compound NOT metabolized | Compound NOT metabolized | Compound NOT metabolized
